According to patent US9475816B2, “Substituted-1,4-dihydropyrazolo[4,3-b]indoles” (TAKEDA PHARMACEUTICAL COMPANY LIMITED, priority 2012, dated 2016):

How the values were obtained:
human MetAP2 enzyme [1] = target: T1, human MetAP2 enzyme (Homo sapiens, UniProt P50579); assay: MetAP2 enzyme assay, MetAP2 enzyme complexed with cobalt ions; settings: MetAP2 Co pIC50, 10 μM CoCl2; -log(IC50), IC50 molar
Procedure: (§1) DNA encoding the full-length sequence of human MetAP2 enzyme is amplified by PCR and cloned into a pFastBac expression vector (Invitrogen). Recombinant baculovirus incorporating the MetAP2 construct is generated by transposition using the Bac-to-Bac system (Invitrogen). The expression of recombinant protein is carried out by infection of Spodoptera frugiperda Sf9 cells (Invitrogen) in 5L Wave Bioreactors (Wave Biotech). Recombinant protein is isolated from cellular extracts by binding to an SP Hitrap Fast Flow or SP Sepharose (Sigma) column, and the protein is eluted using a NaCl gradient. Partially purified extracts of MetAP2 are further purified by an AKTA FPLC over a Superdex-200 column (GE). The purity of MetAP2 protein is determined on denaturing SDS-PAGE gel.
(§2) The results for each well are expressed as percent inhibition and calculated using the equation:

human MetAP2 enzyme [2] = target: T1, human MetAP2 enzyme; assay: MetAP2 enzyme assay, MetAP2 enzyme complexed with manganese ions; settings: MetAP2 Mn pIC50, 10 μM MnCl2; -log(IC50), IC50 molar
Procedure: as §1, §2

T1 sequence (P50579 whole entry): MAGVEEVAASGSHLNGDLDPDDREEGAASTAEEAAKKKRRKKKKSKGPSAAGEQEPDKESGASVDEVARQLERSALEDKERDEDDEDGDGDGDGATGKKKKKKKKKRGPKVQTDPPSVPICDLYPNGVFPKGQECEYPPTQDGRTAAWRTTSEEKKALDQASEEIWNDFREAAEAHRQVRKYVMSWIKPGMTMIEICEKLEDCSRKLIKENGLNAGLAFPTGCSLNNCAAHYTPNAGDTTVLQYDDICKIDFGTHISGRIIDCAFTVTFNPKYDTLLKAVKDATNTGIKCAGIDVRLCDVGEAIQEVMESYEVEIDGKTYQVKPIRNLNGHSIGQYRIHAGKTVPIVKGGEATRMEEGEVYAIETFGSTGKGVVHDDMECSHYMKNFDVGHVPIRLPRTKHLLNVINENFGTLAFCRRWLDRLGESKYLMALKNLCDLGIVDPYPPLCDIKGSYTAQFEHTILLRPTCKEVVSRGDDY

IC50 (human MetAP2 enzyme [1]) [nM]	IC50 (human MetAP2 enzyme [2]) [nM]	Structure (SMILES)
63.1	79.4	Cc1nc(N2CC[C@H](F)C2)ncc1-n1c2ccc(F)cc2c2[nH]ncc21 [Example 34, 7-Fluoro-4-(2-((S)-3-fluoropyrrolidin-1-yl)-4-methylpyrimidin-5-yl)-1,4-dihydropyrazolo[4,3-b]indole]
7.94	6.31	Cc1c(-n2c3ccc(F)cc3c3[nH]ncc32)ccc2c1cnn2C [Example 17, 4-(1,4-Dimethyl-1H-indazol-5-yl)-7-fluoro-1,4-dihydropyrazolo[4,3-b]indole]
6.31	7.94	Cc1nc(N2CCN(C)C(=O)C2)ncc1-n1c2ccc(F)cc2c2[nH]ncc21 [Example 39, 4-(5-(7-Fluoropyrazolo[4,3-b]indol-4(1H)-yl)-4-methylpyrimidin-2-yl)-1-methylpiperazin-2-one]
25.1	50.1	Cc1nc2[nH]cnc2cc1-n1c2cc(Cl)c(F)cc2c2[nH]ncc21 [Example 129, 6-Chloro-7-fluoro-4-(5-methyl-3H-imidazo[4,5-b]pyridin-6-yl)-1,4-dihydropyrazolo[4,3-b]indole]
31.6	50.1	O=C(c1ccc(Cn2c3ccc(F)cc3c3[nH]ncc32)cc1)N1CCOCC1 [Example 52, (4-((7-Fluoropyrazolo[4,3-b]indol-4(1H)-yl)methyl)phenyl)(morpholino)methanone]
12.6	7.94	Cc1cc2c(cc1F)c1[nH]ncc1n2-c1cc2[nH]cnc2nc1C [Example 131, 7-Fluoro-6-methyl-4-(5-methyl-1H-imidazo[4,5-b]pyridin-6-yl)-1,4-dihydropyrazolo[4,3-b]indole]
6.31	3.16	Cc1nc(N2CCC[C@@H]2C(N)=O)ncc1-n1c2ccc(F)cc2c2[nH]ncc21 [Example 73, (2R)-1-(5-(7-Fluoropyrazolo[4,3-b]indol-4(1H)-yl)-4-methylpyrimidin-2-yl)pyrrolidine-2-carboxamide]
15.8	12.6	Cn1nc(C(N)=O)cc1-n1c2ccc(F)cc2c2[nH]ncc21 [Example 48, 5-(7-Fluoropyrazolo[4,3-b]indol-4(1H)-yl)-1-methyl-1H-pyrazole-3-carboxamide]
20	12.6	Cc1cc(C(N)=O)ncc1-n1c2ccc(F)cc2c2[nH]ncc21 [Example 107, 5-(7-Fluoropyrazolo[4,3-b]indol-4(1H)-yl)-4-methylpicolinamide]
12.6	10	Cc1cc(C(=O)NCCCO)ncc1-n1c2ccc(F)cc2c2[nH]ncc21 [Example 115, 5-(7-Fluoropyrazolo[4,3-b]indol-4(1H)-yl)-N-(3-hydroxypropyl)-4-methylpicolinamide]
20	7.94	Cc1nc(C(=O)N2CC(N)C2)ccc1-n1c2ccc(F)cc2c2[nH]ncc21 [Example 117, (3-Aminoazetidin-1-yl)(5-(7-fluoropyrazolo[4,3-b]indol-4(1H)-yl)-6-methylpyridin-2-yl)methanone]
15.8	12.6	Cc1nc(N2CC[C@@H](O)C2)ncc1-n1c2ccc(F)cc2c2[nH]ncc21 [Example 58, (3R)-1-(5-(7-Fluoropyrazolo[4,3-b]indol-4(1H)-yl)-4-methylpyrimidin-2-yl)pyrrolidin-3-ol]
10	6.31	Cc1nc(C(=O)N2CC(O)C2)ccc1-n1c2ccc(F)cc2c2[nH]ncc21 [Example 97, (5-(7-Fluoropyrazolo[4,3-b]indol-4(1H)-yl)-6-methylpyridin-2-yl)(3-hydroxyazetidin-1-yl)methanone]
31.6	39.8	O=C(NCCO)c1ccc(Cn2c3ccc(F)cc3c3[nH]ncc32)cc1 [Example 54, 4-((7-Fluoropyrazolo[4,3-b]indol-4(1H)-yl)methyl)-N-(2-hydroxyethyl)benzamide]
10	5.01	Cn1cc(-n2c3ccc(F)cc3c3[nH]ncc32)c(CO)n1 [Example 138, (4-(7-Fluoropyrazolo[4,3-b]indol-4(1H)-yl)-1-methyl-1H-pyrazol-3-yl)methanol]
20	25.1	Cc1cc(C(=O)N(C)C)ncc1-n1c2ccc(F)cc2c2[nH]ncc21 [Example 108, 5-(7-Fluoropyrazolo[4,3-b]indol-4(1H)-yl)-N,N,4-trimethylpicolinamide]
15.8	12.6	Cc1ncccc1-n1c2ccc(F)cc2c2[nH]ncc21 [Example 61, 7-Fluoro-4-(2-methylpyridin-3-yl)-1,4-dihydropyrazolo[4,3-b]indole]
7.94	6.31	Cc1cc2cn(C)nc2cc1-n1c2ccc(F)cc2c2[nH]ncc21 [Example 16, 4-(2,5-Dimethyl-2H-indazol-6-yl)-7-fluoro-1,4-dihydropyrazolo[4,3-b]indole]

IC50 (human MetAP2 enzyme [1]) [nM]	IC50 (human MetAP2 enzyme [2]) [nM]	Structure (SMILES)
12.6	12.6	Cc1cc(N)ncc1-n1c2ccc(F)cc2c2[nH]ncc21 [Example 41, 5-(7-Fluoropyrazolo[4,3-b]indol-4(1H)-yl)-4-methylpyridin-2-amine]
7.94	10	COCCn1cnc2cc(-n3c4ccc(F)cc4c4[nH]ncc43)c(C)nc21 [Example 31, 7-Fluoro-4-(3-(2-methoxyethyl)-5-methyl-3H-imidazo[4,5-b]pyridin-6-yl)-1,4-dihydropyrazolo[4,3-b]indole]
12.6	7.94	Cc1ccc(-n2c3ccc(F)cc3c3[nH]ncc32)c(C)n1 [Example 10, 4-(2,6-Dimethylpyridin-3-yl)-7-fluoro-1,4-dihydropyrazolo[4,3-b]indole]
7.94	6.31	Cc1nc(C(=O)NC[C@@H](C)O)ccc1-n1c2ccc(F)cc2c2[nH]ncc21 [Example 123, 5-(7-Fluoropyrazolo[4,3-b]indol-4(1H)-yl)-N—((R)-2-hydroxypropyl)-6-methylpicolinamide]
7.94	12.6	Cc1nc(N2CC[C@H](C(=O)N3CC(O)C3)C2)ncc1-n1c2ccc(F)cc2c2[nH]ncc21 [Example 111, ((3S)-1-(5-(7-Fluoropyrazolo[4,3-b]indol-4(1H)-yl)-4-methylpyrimidin-2-yl)pyrrolidin-3-yl)(3-hydroxyazetidin-1-yl)methanone]
10	6.31	Cc1nc(N2CC[C@H](S(C)(=O)=O)C2)ncc1-n1c2ccc(F)cc2c2[nH]ncc21 [Example 137, 7-Fluoro-4-(4-methyl-2-((S)-3-(methylsulfonyl)pyrrolidin-1-yl)pyrimidin-5-yl)-1,4-dihydropyrazolo[4,3-b]indole]
20	31.6	Cc1nc2c(cc1-n1c3ccc(F)cc3c3[nH]ncc31)ncn2CCCO [Example 80, 3-(6-(7-Fluoropyrazolo[4,3-b]indol-4(1H)-yl)-5-methyl-3H-imidazo[4,5-b]pyridin-3-yl)propan-1-ol]
5.01	6.31	Cc1nc2c(cc1-n1c3ccc(F)cc3c3[nH]ncc31)[nH]c(=O)n2CCCO [Example 81, 6-(7-Fluoropyrazolo[4,3-b]indol-4(1H)-yl)-3-(3-hydroxypropyl)-5-methyl-1H-imidazo[4,5-b]pyridin-2(3H)-one]
12.6	5.01	Cc1nc(NC[C@@H](C)O)ccc1-n1c2ccc(F)cc2c2[nH]ncc21 [Example 12, (2R)-1-((5-(7-Fluoropyrazolo[4,3-b]indol-4(1H)-yl)-6-methylpyridin-2-yl)amino)propan-2-ol]
12.6	3.98	Cc1nc2c(cc1-n1c3ccc(F)cc3c3[nH]ncc31)ncn2CCS(C)(=O)=O [Example 116, 7-Fluoro-4-(5-methyl-3-(2-(methylsulfonyl)ethyl)-3H-imidazo[4,5-b]pyridin-6-yl)-1,4-dihydropyrazolo[4,3-b]indole]
20	10	O=c1[nH]c(N2CC[C@@H](O)C2)ncc1-n1c2ccc(F)cc2c2[nH]ncc21 [Example 84, (R)-5-(7-Fluoropyrazolo[4,3-b]indol-4(1H)-yl)-2-(3-hydroxypyrrolidin-1-yl)pyrimidin-4(3H)-one]
63.1	31.6	Cc1ncncc1-n1c2ccc(F)cc2c2[nH]ncc21 [Example 49, 7-Fluoro-4-(4-methylpyrimidin-5-yl)-1,4-dihydropyrazolo[4,3-b]indole]
12.6	10	COCc1[nH]ncc1-n1c2ccc(F)cc2c2[nH]ncc21 [Example 65, 7-Fluoro-4-(5-(methoxymethyl)-1H-pyrazol-4-yl)-1,4-dihydropyrazolo[4,3-b]indole]
7.94	12.6	Cc1nc(NC[C@@H](O)CO)ncc1-n1c2ccc(F)cc2c2[nH]ncc21 [Example 86, (2R)-3-((5-(7-Fluoropyrazolo[4,3-b]indol-4(1H)-yl)-4-methylpyrimidin-2-yl)amino)propane-1,2-diol]
6.31	6.31	Cc1nc(N2CC[C@@H](O)C2)ccc1-n1c2ccc(F)cc2c2[nH]ncc21 [Example 6, (3R)-1-(5-(7-Fluoropyrazolo[4,3-b]indol-4(1H)-yl)-6-methylpyridin-2-yl)pyrrolidin-3-ol]
12.6	10	CNC(=O)c1cc(C)c(-n2c3ccc(F)cc3c3[nH]ncc32)cn1 [Example 113, 5-(7-Fluoropyrazolo[4,3-b]indol-4(1H)-yl)-N,4-dimethylpicolinamide]
50.1	63.1	COCCNC(=O)c1cc(C)c(-n2c3ccc(F)cc3c3[nH]ncc32)cn1 [Example 105, 5-(7-Fluoropyrazolo[4,3-b]indol-4(1H)-yl)-N-(2-methoxyethyl)-4-methylpicolinamide]
31.6	39.8	COCCNC(=O)c1ccc(-n2c3ccc(F)cc3c3[nH]ncc32)c(C)n1 [Example 102, 5-(7-Fluoropyrazolo[4,3-b]indol-4(1H)-yl)-N-(2-methoxyethyl)-6-methylpicolinamide]
